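Step 1: Grow cells in 96-well plates. Step 2: Expose to compound for 48 hours at 5 concentrations. Step 3: Interpolate endpoints linearly; if unreached, use highest concentration. The concentration for 50% growth inhibition is given as GI50.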 Activity calls are given as the source filed them. Rule as the data show it: active = GI50 up to about 1.1 µM and inactive = higher. Residues, ends and D or L forms follow the SMILES beside them.
Columns and labels:
Assay in all cases: NCI tumour cell line growth inhibition, 48 h
OVCAR-3 = test system: OVCAR-3
OVCAR-5 = test system: OVCAR-5
IGROV-1 = test system: IGROV-1
A498 = test system: A498
786-0 = test system: 786-0
U-251 = test system: U-251
RXF 393 = test system: RXF 393
SK-MEL-28 = test system: SK-MEL-28
DU-145 = test system: DU-145
SR = test system: SR
SF-268 = test system: SF-268
MDA-N = test system: MDA-N
HOP-62 = test system: HOP-62
T47D = test system: T47D
NCI-H226 = test system: NCI-H226
TK-10 = test system: TK-10
HT-29 = test system: HT-29
NCI/ADR-RES = test system: NCI/ADR-RES
CCRF-CEM = test system: CCRF-CEM
SF-539 = test system: SF-539

Measured: GI50

CC(=O)NC(CO)C(=O)NC(Cc1ccc(O)cc1)C(=O)NCC(N)=O (stereo not drawn) (Ac-Ser-Tyr-Gly-NH2; configuration not given here)
inactive: OVCAR-3 > 100 µM | OVCAR-5 > 100 µM | IGROV-1 > 100 µM | A498 > 100 µM | 786-0 > 100 µM | U-251 > 100 µM | RXF 393 > 100 µM | SK-MEL-28 > 100 µM | DU-145 > 100 µM | SR > 100 µM | SF-268 > 100 µM | MDA-N > 100 µM | HOP-62 > 100 µM | T47D > 100 µM | NCI-H226 > 100 µM | TK-10 > 100 µM | HT-29 > 100 µM | NCI/ADR-RES > 100 µM | CCRF-CEM > 100 µM | SF-539 > 100 µM

C/C(=C\COc1ccc2ccc(=O)oc2c1)C1=CC(=O)C(C)(C)O1 [GEIPARVARIN]
inactive: OVCAR-3 3.7 µM | OVCAR-5 10.2 µM | IGROV-1 4.63 µM | A498 4.6 µM | 786-0 3.74 µM | U-251 4.3 µM | RXF 393 2.01 µM | SK-MEL-28 4.23 µM | DU-145 2.53 µM | SR 1.68 µM | SF-268 3.93 µM | MDA-N 3.28 µM | HOP-62 5.47 µM | T47D 3.68 µM | NCI-H226 3.32 µM | TK-10 5.07 µM | HT-29 4.01 µM | NCI/ADR-RES 2.64 µM | CCRF-CEM 1.51 µM | SF-539 2.17 µM

Source: ChEMBL document CHEMBL1201862, “PubChem BioAssay data set” (2004)
